One series concerns A549 lung cancer cells. In words: SRB colorimetric assay, A549 lung cancer cells, 72 hours. In kind it is cell-based, human. The conditions noted are these: for IC50: A549, 72 hours, average ± SD of three curves; for IC50 times lower than cisplatin: A549. The procedure:
A549 cells were cultured in RPMI media supplemented with 10% Fetal Bovine Serum and 1% nonessential amino acids. Sub-culturing was carried out every 3-4 days and was completed by removing the supernatant media and treating the adherent cells with 1.0 mL of a 0.25% (w/v) Trypsin/0.5 mM EDTA solution. The cells were then treated for approximately 3 minutes in a 37° C. incubator under a 5% CO2 atmosphere. Trypsinization was stopped by the addition of 7.0 mL of cell culture media, the suspended cells were collected by centrifugation, and the resulting cell pellet was re-suspended in fresh cell culture media. The cells were then diluted 1:4 by volume and incubated in a 37° C. incubator with 5% CO2. Cells were grown to 80-90% confluency prior to being used in the SRB colorimetric assays.
To test the effects of compounds 1-18 on the growth of A549 lung cancer cells, SRB cytotoxicity assays were done as described by Skehan et al. Cells were maintained in RPMI media as described above, collected, and diluted so that cells could be seeded in 96-well plates at a density of 4,000 cells/well. The 96-well plate was incubated overnight at 37° C. under a 5% CO2 atmosphere. Subsequently, sterifiltered DMSO stock solutions of the drugs were added to the wells in various concentrations (0-25 μM) and the 96-well plate was incubated at 37° C. under a 5% CO2 for an additional 72 hours. The supernatant cell culture medium was then removed and the cells were fixed for 1 hour with 10% cold trichloroacetic acid (100 μL per well). The trichloroacetic acid was discarded and the plates were washed 5 times with de-ionized water and air dried. After being stained with 0.4% SRB ([…]) and incubated at room temperature for 10 minutes, the cells were washed 5 times with 1% acetic acid and air dried. The bound SRB was dissolved in 10 mM unbuffered Tris, pH 10.5 ([…]) for 10 minutes at room temperature, and the absorbance at 492 nm was measured using a microplate reader. The percent cell growth was then calculated based upon the absorbance values relative to control samples not containing any drug. Each drug concentration was done in triplicate to yield a percent growth vs. drug concentration curve, and these growth curves were subsequently repeated two additional times. The growth curves from the three experiments were then plotted in GraphPad Prism and best-fit curves were used to generate the IC50 values for each curve.

For series [1], the system named is GL-26 glioma cells. In words: SRB growth assay, GL-26 glioma cells, 48 hr drug incubation. The conditions noted are these: Mus musculus, read-out: GL-26 cell growth inhibition. In kind it is cell-based, murine (C57BL/6). The procedure: The murine (C57BL/6) glioma cell line, GL-26, which is highly tumorigenic in the C57BL/6 mice. GL-26 cells were cultured in DMEM/F12 supplemented with 10% FCS, 1% penicillin/streptomycin, 1% L-glutamine and 1% non-essential amino acids. Human foreskin fibroblasts (HFFs) were cultured in DMEM/F12 supplemented with 10% FCS and 1% penicillin/streptomycin. Primary murine astrocytes were purified from C57BL/6 neonate brains and cultured in DMEM/F12 supplemented with 10% FCS, 1% non-essential amino acids, 1% Lglutamine, 50 IU/ml penicillin, […] and 10 mM Hepes buffer.
The sulforhodamine B (SRB) cytotoxicity assays were adapted from Skehan et al. (22). Briefly, either HFF, primary astrocytes or GL-26 cells were plated in 96-well plates at a density of 4,000 cells/well in a volume of 100 µL overnight at 37° C. and 5% CO2. DMSO stock solutions of SBP, MSBP or TMZ were used at a concentration range of 0.1-25 μM for 48 hr before the supernatant was discarded and the cells were fixed for 1 hr with 10% cold trichloroacetic acid (100 μL, per well). Cells used in recovery assay received fresh media for 48 hrs following the 48 hr drug incubation. The plate was then washed 5 times with de-ionized water, air dried, and stained with 0.4% SRB for 10 min (50 μL, per well). After washing 5 times in 1% acetic acid and air-drying, bound SRB was dissolved in 10 mM unbuffered Tris base (pH 10.5; 100 μL, per well). Bound SRB was then read by absorbance at 492 nm on a SpectraMax plate reader (Molecular Devices). The percent survival was then calculated based upon the absorbance values relative to control wells (0 μM SBP in 0.1% DMSO).
(In general: In SRB staining, fixed cells bind dye roughly in proportion to their protein.)

The conditions of series [2]: GSH buffer solution; cited from earlier work.
A short description of series [3]: Glutathione stability experiments (UV-visible spectra). The conditions noted are these: 5.0×10^−5 M complex, one mole equivalent GSH, phosphate buffer pH 7.4, 15 hours. The format is physicochemical. The procedure:
5.0×10^−3 M stock solutions of compounds 10-18 were prepared in acetonitrile or DMSO, and subsequently diluted in phosphate buffer (0.10M, pH 7.4) to yield a final gold complex concentration of 5.0×10^−5 M. A stock solution of reduced glutathione in phosphate buffer (0.10M, pH 7.4) was used to add one mole equivalent of GSH to the final gold complex solution, and UV-visible spectra of compounds 10-18 were subsequently collected every hour over a 15 hour period.

The subject of series [4] is GL-26 glioma cells. In words: SRB growth assay, cisplatin/SBP combination. In kind it is cell-based, murine (C57BL/6). The conditions noted are these: 0.8 μM cisplatin alone, 48 hours. The procedure: The murine (C57BL/6) glioma cell line, GL-26, which is highly tumorigenic in C57BL/6 mice, were used for these in-vitro experiments. GL-26 cells were cultured in DMEM/F12 supplemented with 10% FCS, 1% penicillin/streptomycin, 1% L-glutamine and 1% non-essential amino acids.
Sulforhodamine B (SRB) cytotoxicity assays were utilized to assess antitumor activity. GL-26 cells were plated in 96 well plates at a density of 4,000 cells/well (in a total volume of 100 µL) and incubated for 24 hours in a humidified atmosphere of 5% CO2 at 37° C. GL-26 cells were then exposed to Cisplatin at 0-25 μM with either 0.1 or 0.4 μM SBP for 48 hours. The supernatant was then discarded and the GL-26 cells were fixed with 10% cold trichloroacetic acid for 1 hour (100 μL/well). The cells were washed 5 times with de-ionized water, air dried, and stained with 0.4% SRB for 10 min (50 μL/well). GL-26 cells were then washed 5 times in 1% acetic acid and allowed to air dry. The bound SRB was dissolved in a 10 mM unbuffered Tris base (pH 10.5; 100 μL per well) and quantified by the absorbance at 492 nm using the SpectraMax plate reader (Molecular Devices). The fraction of cell growth was determined based upon the absorbance values in comparison to the control wells (0 μM SBP in 0.5% DMSO). All cell growth assays were done in a minimum of triplicates.

By IC50 is commonly meant the concentration at which inhibition is half-maximal. Lower therefore signals higher potency. Usually inhibition stands for how much of the control response was suppressed.

The compound `CCCCc1ccc2ccc3ccc(CCCC)nc3c2n1` [Compound 2, 2,9-di-n-butyl-1,10-phenanthroline] showed an IC50 with A549 lung cancer cells (Homo sapiens) of 1080 ± 280 nM.

Compound `Cc1ccc2ccc3ccc(C)nc3c2n1` [Compound 3, 2,9-di-methyl-1,10-phenanthroline] returned an IC50 in the series with A549 lung cancer cells (Homo sapiens) of 1350 ± 90 nM.

The compound `CCC(C)c1ccc2ccc3c(C)cc(C(C)CC)nc3c2n1` (centres unmarked) [Compound 4, 2,9-di-sec-butyl-4-methyl-1,10-phenanthroline] showed an IC50 in the series on A549 lung cancer cells (Homo sapiens) of 700 ± 110 nM.

For the compound `CCC(C)c1ccc2ccc3cccnc3c2n1` (centres unmarked) [Compound 5, 2-sec-butyl-1,10-phenanthroline], the inhibition at 6 µM with GL-26 glioma cells [1] (GL26, 6 μM) stood at 0.6 ± 1.2%. The inhibition at 25 µM in the series on GL-26 glioma cells [1] (GL26, 25 μM) turned out to be 24.7 ± 5%. Further, it took 620 ± 160 nM to reach half-maximal inhibition in the series on A549 lung cancer cells (Homo sapiens) (IC50).

Regarding `CCCCc1ccc2ccc3cccnc3c2n1` [Compound 6, 2-mono-n-butyl-phenanthroline], half-maximal inhibition with A549 lung cancer cells (Homo sapiens) (IC50) was put at 2920 ± 470 nM.

In the series with A549 lung cancer cells (Homo sapiens), `c1ccc(-c2ccc3ccc4ccc(-c5ccccc5)nc4c3n2)cc1` [Compound 7, 2,9-di-phenyl-1,10-phenanthroline] registered an IC50 of 1870 ± 210 nM.

Turning to `Cc1cc(-c2ccccc2)nc2c1ccc1ccc(-c3ccccc3)nc12` [Compound 8, 2,9-di-phenyl-4-methtyl-1,10-phenanthroline], in the series with A549 lung cancer cells, the IC50 worked out at 1350 ± 110 nM.

Consider `CCC(C)c1ccc2ccc3ccc(C(C)CC)nc3c2n1.[Cl][Au]([Cl])[Cl]` (centres unmarked) [Compound 10, (2,9-di-sec-butyl-1,10-phenanthroline)AuCl3], for which the “stability in the presence of GSH (previous studies)” value in series [2] was “quite stable in the presence of a GSH buffer solution”. Further, the IC50 in the series with A549 lung cancer cells was found to be 580 ± 150 nM.

Turning to `CCCCc1ccc2ccc3ccc(CCCC)nc3c2n1.[Cl][Au]([Cl])[Cl]` [Compound 11, (2,9-di-n-butyl-1,10-phenanthroline)AuCl3], in the series with A549 lung cancer cells, the “IC50 times lower than cisplatin” value is listed as “approximately 12 times” and inhibition was half-maximal at 340 ± 60 nM (IC50). Also, in the series on A549 lung cancer cells (A549 IC50 ratio), the “times more active than the free ligand” value is on record as “approximately 3 times”.

Regarding `Cc1ccc2ccc3ccc(C)nc3c2n1.[Cl][Au]([Cl])[Cl]` [Compound 12, (2,9-di-methyl-1,10-phenanthroline)AuCl3], the midpoint of inhibition in the series on A549 lung cancer cells, the IC50, lay at 1470 ± 210 nM.

In the series with A549 lung cancer cells, `CCC(C)c1ccc2ccc3c(C)cc(C(C)CC)nc3c2n1.[Cl][Au]([Cl])[Cl]` (centres unmarked) [Compound 13, (2,9-di-sec-butyl-4-methyl-1,10-phenanthroline)AuCl3] yielded an IC50 of 4020 ± 320 nM. In addition, in the series with A549 lung cancer cells (A549 IC50 ratio), the “times less active than the corresponding free ligand” value is given as “approximately 6 times”.

In the series on A549 lung cancer cells, `CCC(C)c1ccc2ccc3cccnc3c2n1.[Cl][Au]([Cl])[Cl]` (centres unmarked) [Compound 14, (2-sec-butyl-1,10-phenanthroline)AuCl3] displayed an IC50 of 770 ± 70 nM.

For the compound `CCCCc1ccc2ccc3cccnc3c2n1.[Cl][Au]([Cl])[Cl]` [Compound 15, (2-mono-n-butyl-phenanthroline)AuCl3], in series [3], the “redox stability in the presence of GSH” value is listed as “no reduction to gold(I) or gold(0) occurred”. In the series with A549 lung cancer cells, the “IC50 times lower than cisplatin” value is on record as “approximately 12 times” and half-maximal inhibition (IC50) was put at 370 ± 90 nM. For the same compound, the “times more active than the free ligand” value in the series with A549 lung cancer cells (A549 IC50 ratio) is recorded as roughly 8 times.

In the series with A549 lung cancer cells, `[Cl][Au]([Cl])[Cl].c1ccc(-c2ccc3ccc4ccc(-c5ccccc5)nc4c3n2)cc1` [Compound 16, (2,9-di-phenyl-1,10-phenanthroline)AuCl3] had an IC50 of 1650 ± 130 nM.

As to `Cc1cc(-c2ccccc2)nc2c1ccc1ccc(-c3ccccc3)nc12.[Cl][Au]([Cl])[Cl]` [Compound 17, (2,9-di-phenyl-4-methtyl-1,10-phenanthroline)AuCl3], the IC50 in the series with A549 lung cancer cells was 1370 ± 110 nM.

With `Cc1c(C)c2cccnc2c2ncccc12.[Cl][Au+][Cl]` [[(^5,6-di-methylphen)AuCl2]^+, reference compound], the “stability in the presence of GSH (previous studies)” value in series [2] is on record as “underwent immediate reduction to gold(0) in the presence of GSH”.

As to `N.N.[Cl][Pt][Cl]` [cisplatin, [Pt(NH3)2Cl2], reference compound], in the series on GL-26 glioma cells [4], the “cell growth compared to untreated tumor cells” value is “approximately 78%”. The compound also yielded an IC50 in the series with A549 lung cancer cells of 4670 ± 210 nM.

In the case of “(2-mono-sec-butyl-2,2′-bipyridine)AuCl3 [Compound 18]”, the “Cell Growth @ 12 μM” value in the series with A549 lung cancer cells (A549, 12 μM) is listed as 100% Cell Growth @ 12 μM. The “reduction of A549 tumor cell growth” value with A549 lung cancer cells (concentrations used for compounds 1-8 and 10-17) is recorded as “did not reduce tumor cell growth at any of the concentrations”.

The values above are taken from patent publication US20150125550A1, “APPLICATION OF 2,9-DI-SEC-BUTYL-1,10-PHENANTHROLINE AS A GLIOBLASTOMA TUMOR CHEMOTHERAPY” (priority 2013, published 2015).
